According to US20240174727A1, “LONG-ACTING NATRIURETIC PEPTIDES AND USES THEREOF” (Eli Lilly and Company, priority 2022, published 2024):

What was measured:
[1] = target: human NPRB (natriuretic peptide receptor B) (human) (UniProt P20594); assay: cell-based or functional assay
[2] = target: rat NPRB (natriuretic peptide receptor B) (rat) (UniProt P16067); assay: cell-based or functional assay
[3] = target: T1, human NPRA (Homo sapiens, UniProt P16066); assay: Human NPRA cGMP activity assay (HTRF) in HEK293 cells overexpressing NPRA; type: cell-based; conditions: cGMP Assay (EC50, pM) w/BSA hNPRA, assay buffer with 0.1% BSA
T1 construct: Full-Length cDNA Cloning and Generation of Cell Lines Overexpressing Natriuretic Peptide Receptors (NPRs); expressed in transfected cells; host or cells: Jump-in T-Rex HEK293 cells, pJTI R4 CMV-TO MCS pA vector, tetracycline induction
T1 sequence (P16066 33-1061): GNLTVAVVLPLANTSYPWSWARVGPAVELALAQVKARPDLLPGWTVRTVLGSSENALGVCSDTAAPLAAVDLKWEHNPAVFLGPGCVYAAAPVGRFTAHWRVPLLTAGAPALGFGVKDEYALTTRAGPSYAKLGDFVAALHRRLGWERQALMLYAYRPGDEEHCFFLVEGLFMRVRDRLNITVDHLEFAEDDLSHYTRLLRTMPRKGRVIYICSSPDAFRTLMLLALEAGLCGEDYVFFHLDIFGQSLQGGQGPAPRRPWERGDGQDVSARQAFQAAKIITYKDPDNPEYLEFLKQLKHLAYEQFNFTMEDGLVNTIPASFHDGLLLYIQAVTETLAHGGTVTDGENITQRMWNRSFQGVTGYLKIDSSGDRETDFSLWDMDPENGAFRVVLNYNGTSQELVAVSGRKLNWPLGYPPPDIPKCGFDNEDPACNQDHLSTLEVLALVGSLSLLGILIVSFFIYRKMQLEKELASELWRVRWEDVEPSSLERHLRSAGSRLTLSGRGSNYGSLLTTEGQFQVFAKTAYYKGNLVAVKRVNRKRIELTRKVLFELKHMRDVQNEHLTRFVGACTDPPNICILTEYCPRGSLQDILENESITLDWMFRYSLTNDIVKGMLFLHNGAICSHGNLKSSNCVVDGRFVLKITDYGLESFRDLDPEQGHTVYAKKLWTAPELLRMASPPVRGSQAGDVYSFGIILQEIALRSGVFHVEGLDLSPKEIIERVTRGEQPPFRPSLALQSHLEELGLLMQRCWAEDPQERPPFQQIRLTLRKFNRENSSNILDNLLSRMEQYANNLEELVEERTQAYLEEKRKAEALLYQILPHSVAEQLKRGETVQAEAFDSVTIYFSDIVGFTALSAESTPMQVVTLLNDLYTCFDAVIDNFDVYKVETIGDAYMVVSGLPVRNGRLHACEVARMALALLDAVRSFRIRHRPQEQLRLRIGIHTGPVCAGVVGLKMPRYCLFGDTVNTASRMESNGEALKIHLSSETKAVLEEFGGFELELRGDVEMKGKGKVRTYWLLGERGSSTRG
Outline: (§1)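 Tetracycline-induced (300 ng/mL, 48 h) T-Rex HEK293 cells expressing NPRA, 4000 cells/well, treated 40 min at room temperature with polypeptide (8 points, 10 μM to 1 pM) in HBSS/HEPES buffer with 0.5 mM IBMX, pH 7.4. cGMP by HTRF, normalised to 100 nM amidated rat ANP and buffer.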

[4] = Pharmacokinetics in male Sprague Dawley rats; type: in vivo; conditions: rat, sc, mean, single subcutaneous administration of 200 nMol/kg, plasma; for half-life: read-out: t½ (converted)
Protocol: The pharmacokinetics of the exemplary analogs are evaluated following a single subcutaneous administration of […] to male Sprague Dawley rats. Blood samples are collected over 120 hours, and resulting individual plasma concentrations are used to calculate pharmacokinetic parameters. Peptide plasma (K3 EDTA) concentrations are determined using a qualified LC/MS method that measured the intact mass of the ANP polypeptide. Each peptide and an analog as an internal standard are extracted from 100% specie specified plasma using methanol with 0.1% formic acid. A Thermo Q-Exactive, High Resolution Instrument, and a Thermo Easy Spray PepMap are combined for LC/MS detection.

[5] = target: T2, rat NPRA (Rattus norvegicus, UniProt P18910); assay: Rat NPRA cGMP activity assay (HTRF) in HEK293 cells overexpressing NPRA; type: cell-based; conditions: assay buffer with 0.1% casein, read-out: cGMP Assay (EC50, pM) w/Casein rNPRA
T2 construct: Full-Length cDNA Cloning and Generation of Cell Lines Overexpressing Natriuretic Peptide Receptors (NPRs); expressed in transfected cells; host or cells: Jump-in T-Rex HEK293 cells, pJTI R4 CMV-TO MCS pA vector, tetracycline induction
T2 sequence (P18910 29-1057): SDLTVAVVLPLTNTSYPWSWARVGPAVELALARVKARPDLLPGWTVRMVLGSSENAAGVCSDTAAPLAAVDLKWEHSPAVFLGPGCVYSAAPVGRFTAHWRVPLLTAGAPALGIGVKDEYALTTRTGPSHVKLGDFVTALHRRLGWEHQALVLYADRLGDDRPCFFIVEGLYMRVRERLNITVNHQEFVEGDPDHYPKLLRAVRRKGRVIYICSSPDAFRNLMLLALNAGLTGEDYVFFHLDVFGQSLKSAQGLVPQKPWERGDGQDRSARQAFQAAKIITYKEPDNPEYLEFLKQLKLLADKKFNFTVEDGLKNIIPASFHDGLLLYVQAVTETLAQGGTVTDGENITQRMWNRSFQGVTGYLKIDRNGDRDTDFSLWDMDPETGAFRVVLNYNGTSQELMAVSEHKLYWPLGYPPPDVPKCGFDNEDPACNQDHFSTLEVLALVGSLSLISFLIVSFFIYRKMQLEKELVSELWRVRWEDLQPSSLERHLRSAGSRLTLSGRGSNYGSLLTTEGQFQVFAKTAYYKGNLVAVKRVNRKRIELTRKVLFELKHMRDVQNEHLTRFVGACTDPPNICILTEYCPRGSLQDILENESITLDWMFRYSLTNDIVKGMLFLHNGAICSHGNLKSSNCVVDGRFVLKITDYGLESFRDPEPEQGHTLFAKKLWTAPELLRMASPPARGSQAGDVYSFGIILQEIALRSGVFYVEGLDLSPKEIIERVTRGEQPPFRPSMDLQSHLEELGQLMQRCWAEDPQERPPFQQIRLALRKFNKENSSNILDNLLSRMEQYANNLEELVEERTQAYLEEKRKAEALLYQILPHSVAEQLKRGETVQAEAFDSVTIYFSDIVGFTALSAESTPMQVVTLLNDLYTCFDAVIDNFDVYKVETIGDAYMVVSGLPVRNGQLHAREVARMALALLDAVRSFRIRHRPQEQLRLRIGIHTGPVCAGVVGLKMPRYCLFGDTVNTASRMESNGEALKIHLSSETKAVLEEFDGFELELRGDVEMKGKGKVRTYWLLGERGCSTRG
Outline: as §1

[6] = system: SAUNA Mouse Model; assay: Salty drinking water/Unilateral Nephrectomy/Aldosterone (SAUNA) mouse model of heart failure; type: in vivo, male C57BL/6N mice; conditions: SAUNA mice, once daily SC 0.4 mg/kg
From the text: The effect of Exemplary ANP polypeptides is investigated in the Salty drinking water/Unilateral Nephrectomy/Aldosterone (SAUNA) Mouse Model, murine model of heart failure induced by chronic aldosterone infusion. After acclimation for approximately 2 weeks, heart failure is induced in male C57BL/6N (Taconic) mice by uninephrectomy, continuous d-aldosterone infusion and 1.0% sodium chloride in drinking water for 4 weeks (Tanaka et al., 2016; Valero-Munoz, Li, Wilson, Boldbaatar, et al., 2016; Valero-Munoz, Li, Wilson, Hulsmans, et al., 2016; Yang, Kong, Shuai, Zhang, & Huang, 2020; Yoon et al., 2021). […] The pressure volume (PV) catheter is introduced into the left ventricle via apical stab with a 27G needle. Calibration of the PV catheter is performed according to the manufacturer's instructions. Data are analyzed with LabChart pro software (AD Instruments). After PV loop measurements, mice are sacrificed, and ratio of heart weight to tibia length is used for indicator of hypertrophy.

Chain of rat NPRB (natriuretic peptide receptor B) (rat) (P16067 17-1047): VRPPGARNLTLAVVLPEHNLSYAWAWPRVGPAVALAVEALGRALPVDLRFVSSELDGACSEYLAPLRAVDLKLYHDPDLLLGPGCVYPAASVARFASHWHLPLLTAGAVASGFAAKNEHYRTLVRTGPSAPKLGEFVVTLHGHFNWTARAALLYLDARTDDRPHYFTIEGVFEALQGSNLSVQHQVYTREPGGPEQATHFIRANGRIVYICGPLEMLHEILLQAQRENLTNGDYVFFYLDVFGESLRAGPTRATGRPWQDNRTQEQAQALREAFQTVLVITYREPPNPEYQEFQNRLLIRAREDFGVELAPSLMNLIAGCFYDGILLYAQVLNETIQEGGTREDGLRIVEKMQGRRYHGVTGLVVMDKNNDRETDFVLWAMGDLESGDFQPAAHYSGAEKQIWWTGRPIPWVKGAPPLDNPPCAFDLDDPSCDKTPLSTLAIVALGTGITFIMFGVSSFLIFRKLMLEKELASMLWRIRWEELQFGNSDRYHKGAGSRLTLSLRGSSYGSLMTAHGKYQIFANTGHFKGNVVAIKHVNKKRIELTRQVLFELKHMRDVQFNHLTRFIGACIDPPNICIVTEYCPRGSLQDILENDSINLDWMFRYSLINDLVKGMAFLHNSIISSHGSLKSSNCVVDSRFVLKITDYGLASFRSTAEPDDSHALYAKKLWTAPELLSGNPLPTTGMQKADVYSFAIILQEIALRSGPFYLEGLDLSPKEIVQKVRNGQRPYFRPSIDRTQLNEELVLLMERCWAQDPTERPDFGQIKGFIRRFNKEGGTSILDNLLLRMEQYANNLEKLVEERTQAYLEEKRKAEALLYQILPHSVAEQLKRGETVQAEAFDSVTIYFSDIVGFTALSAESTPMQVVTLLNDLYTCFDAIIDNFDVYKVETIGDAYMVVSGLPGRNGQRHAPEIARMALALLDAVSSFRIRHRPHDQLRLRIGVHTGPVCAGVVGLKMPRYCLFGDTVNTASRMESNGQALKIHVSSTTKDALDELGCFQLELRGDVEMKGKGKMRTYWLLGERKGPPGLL
Chain of human NPRB (natriuretic peptide receptor B) (human) (P20594 23-1047): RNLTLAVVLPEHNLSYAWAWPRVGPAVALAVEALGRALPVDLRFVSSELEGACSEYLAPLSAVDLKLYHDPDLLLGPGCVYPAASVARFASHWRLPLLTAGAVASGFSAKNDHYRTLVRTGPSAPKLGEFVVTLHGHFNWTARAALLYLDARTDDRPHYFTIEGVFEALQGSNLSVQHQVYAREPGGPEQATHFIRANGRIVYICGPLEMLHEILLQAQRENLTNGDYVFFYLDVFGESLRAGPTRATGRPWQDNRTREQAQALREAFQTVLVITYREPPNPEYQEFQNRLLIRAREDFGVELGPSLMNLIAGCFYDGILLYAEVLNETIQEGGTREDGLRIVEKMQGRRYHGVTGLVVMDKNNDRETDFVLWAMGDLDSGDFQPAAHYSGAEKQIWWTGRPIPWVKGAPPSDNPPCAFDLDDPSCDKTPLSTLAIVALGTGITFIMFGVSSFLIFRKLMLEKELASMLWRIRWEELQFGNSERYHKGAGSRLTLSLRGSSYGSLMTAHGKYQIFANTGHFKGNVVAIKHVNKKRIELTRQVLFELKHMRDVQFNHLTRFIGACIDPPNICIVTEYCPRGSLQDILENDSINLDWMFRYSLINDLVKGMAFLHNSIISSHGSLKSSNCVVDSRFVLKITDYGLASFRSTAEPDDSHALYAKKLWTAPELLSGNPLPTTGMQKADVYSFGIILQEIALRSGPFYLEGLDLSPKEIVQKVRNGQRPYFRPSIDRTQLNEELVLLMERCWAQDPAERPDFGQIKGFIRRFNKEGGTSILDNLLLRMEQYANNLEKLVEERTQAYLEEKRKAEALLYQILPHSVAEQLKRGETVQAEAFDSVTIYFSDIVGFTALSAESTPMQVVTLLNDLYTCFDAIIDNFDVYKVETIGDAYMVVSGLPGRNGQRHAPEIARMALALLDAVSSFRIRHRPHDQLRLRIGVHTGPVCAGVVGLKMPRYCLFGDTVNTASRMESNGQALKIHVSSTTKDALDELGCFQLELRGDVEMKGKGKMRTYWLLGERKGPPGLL

cGMP production (HTRF) in HEK293 cells overexpressing NPRB; concentration that defines the 100% response [1] [µM] | cGMP production (HTRF) in HEK293 cells overexpressing NPRB; concentration that defines the 100% response [2] [µM] | Molecule | EC50 [3] [pM] | CL/F [4] [mL/min/kg] | half-life [4] [h] | EC50 [5] [pM] | blood pressure [6] | left ventricle diastolic pressure ([6]; PV catheter) | heart weight and tibia length ([6]; indicator of hypertrophy)
1 | 1 | human CNP-22 (from UniProt P23582 105-126) (peptide) | – | – | – | – | – | – | –
– | – | CC[C@H](C)[C@@H]1NC(=O)[C@H](CCCNC(=N)N)NC(=O)[C@H](CC(=O)O)NC(=O)[C@H]([C@@H](C)CC)NC(=O)[C@H](CCCNC(=N)N)NC(=O)CNC(=O)CNC(=O)[C@H](Cc2ccccc2)NC(=O)[C@@H](NC(=O)[C@H](CO)NC(=O)[C@H](CO)NC(=O)[C@H](CCCNC(=N)N)NC(=O)[C@H](CCCNC(=N)N)NC(=O)[C@H](Cc2ccncc2)NC(=O)[C@H](CO)NC(=O)CNC(=O)[C@H](CCCCN)NC(=O)[C@H](CCC(=O)O)NC(=O)[C@H](CCCCN)NC(=O)[C@H](CCC(=O)O)NC(=O)[C@H](CCCCN)NC(=O)[C@H](CCC(=O)O)NC(=O)CC[C@H](NC(=O)CCCCCCCCCCCCCCCCCCC(=O)O)C(=O)O)CSSC[C@@H](C(=O)N2CCC[C@H]2C(=O)N[C@@H](CO)C(=O)N[C@@H](Cc2ccccc2)C(=O)N[C@@H](CCCNC(=N)N)C(=O)N[C@@H](Cc2c[nH]cn2)C(=O)NCC(=O)NCC(=O)N2CCC[C@H]2C(=O)N[C@@H](CO)C(=O)N[C@@H](CO)C(=O)NCC(=O)N[C@@H](C)C(=O)N2CCC[C@H]2C(=O)N2CCC[C@H]2C(=O)N2CCC[C@H]2C(=O)N[C@@H](CO)C(N)=O)NC(=O)CNC(=O)[C@H](CC(C)C)NC(=O)CNC(=O)[C@H](CO)NC(=O)[C@H](CCC(N)=O)NC(=O)[C@H](Cc2c[nH]cn2)NC(=O)CNC1=O [Example 1] | 11600 | 0.343 | 11 | – | – | – | –
– | – | CC[C@H](C)[C@@H]1NC(=O)[C@H](CCCNC(=N)N)NC(=O)[C@H](CC(=O)O)NC(=O)[C@H]([C@@H](C)CC)NC(=O)[C@H](CCCNC(=N)N)NC(=O)CNC(=O)CNC(=O)[C@H](Cc2ccccc2)NC(=O)[C@@H](NC(=O)[C@H](CO)NC(=O)[C@H](CO)NC(=O)[C@H](CCCNC(=N)N)NC(=O)[C@H](CCCNC(=N)N)NC(=O)[C@H](CC(C)C)NC(=O)[C@H](CO)NC(=O)CNC(=O)[C@H](CCCCN)NC(=O)[C@H](CCC(=O)O)NC(=O)[C@H](CCCCN)NC(=O)[C@H](CCC(=O)O)NC(=O)[C@H](CCCCN)NC(=O)[C@H](CCC(=O)O)NC(=O)CC[C@H](NC(=O)CCCCCCCCCCCCCCCCCCC(=O)O)C(=O)O)CSSC[C@@H](C(=O)N[C@@H](CC(N)=O)C(=O)N[C@@H](CO)C(=O)N[C@@H](Cc2ccccc2)C(=O)N[C@@H](CCCNC(=N)N)C(=O)N[C@@H](Cc2ccc(O)cc2)C(N)=O)NC(=O)CNC(=O)[C@H](CC(C)C)NC(=O)CNC(=O)[C@H](CO)NC(=O)[C@H](CCC(N)=O)NC(=O)[C@H](C)NC(=O)CNC1=O [Example 8] | – | 0.698 | 15 | 493 | decrease in blood pressure | reduced left ventricle diastolic pressure | decrease
